# Experimental data taken from PMC10964739 (Toxicological Sciences, 2024).
# How the values were obtained:
# [1] = biological target: TOP2B (topoisomerase IIβ) (Homo sapiens, UniProt Q02880); experiment: kDNA decatenation assay with recombinant enzyme; format: biochemical
# [2] = biological target: TOP2A (topoisomerase IIα) (Homo sapiens, UniProt P11388); experiment: kDNA decatenation assay with recombinant enzyme; format: biochemical
# Chain of TOP2A (topoisomerase IIα) (P11388 whole entry): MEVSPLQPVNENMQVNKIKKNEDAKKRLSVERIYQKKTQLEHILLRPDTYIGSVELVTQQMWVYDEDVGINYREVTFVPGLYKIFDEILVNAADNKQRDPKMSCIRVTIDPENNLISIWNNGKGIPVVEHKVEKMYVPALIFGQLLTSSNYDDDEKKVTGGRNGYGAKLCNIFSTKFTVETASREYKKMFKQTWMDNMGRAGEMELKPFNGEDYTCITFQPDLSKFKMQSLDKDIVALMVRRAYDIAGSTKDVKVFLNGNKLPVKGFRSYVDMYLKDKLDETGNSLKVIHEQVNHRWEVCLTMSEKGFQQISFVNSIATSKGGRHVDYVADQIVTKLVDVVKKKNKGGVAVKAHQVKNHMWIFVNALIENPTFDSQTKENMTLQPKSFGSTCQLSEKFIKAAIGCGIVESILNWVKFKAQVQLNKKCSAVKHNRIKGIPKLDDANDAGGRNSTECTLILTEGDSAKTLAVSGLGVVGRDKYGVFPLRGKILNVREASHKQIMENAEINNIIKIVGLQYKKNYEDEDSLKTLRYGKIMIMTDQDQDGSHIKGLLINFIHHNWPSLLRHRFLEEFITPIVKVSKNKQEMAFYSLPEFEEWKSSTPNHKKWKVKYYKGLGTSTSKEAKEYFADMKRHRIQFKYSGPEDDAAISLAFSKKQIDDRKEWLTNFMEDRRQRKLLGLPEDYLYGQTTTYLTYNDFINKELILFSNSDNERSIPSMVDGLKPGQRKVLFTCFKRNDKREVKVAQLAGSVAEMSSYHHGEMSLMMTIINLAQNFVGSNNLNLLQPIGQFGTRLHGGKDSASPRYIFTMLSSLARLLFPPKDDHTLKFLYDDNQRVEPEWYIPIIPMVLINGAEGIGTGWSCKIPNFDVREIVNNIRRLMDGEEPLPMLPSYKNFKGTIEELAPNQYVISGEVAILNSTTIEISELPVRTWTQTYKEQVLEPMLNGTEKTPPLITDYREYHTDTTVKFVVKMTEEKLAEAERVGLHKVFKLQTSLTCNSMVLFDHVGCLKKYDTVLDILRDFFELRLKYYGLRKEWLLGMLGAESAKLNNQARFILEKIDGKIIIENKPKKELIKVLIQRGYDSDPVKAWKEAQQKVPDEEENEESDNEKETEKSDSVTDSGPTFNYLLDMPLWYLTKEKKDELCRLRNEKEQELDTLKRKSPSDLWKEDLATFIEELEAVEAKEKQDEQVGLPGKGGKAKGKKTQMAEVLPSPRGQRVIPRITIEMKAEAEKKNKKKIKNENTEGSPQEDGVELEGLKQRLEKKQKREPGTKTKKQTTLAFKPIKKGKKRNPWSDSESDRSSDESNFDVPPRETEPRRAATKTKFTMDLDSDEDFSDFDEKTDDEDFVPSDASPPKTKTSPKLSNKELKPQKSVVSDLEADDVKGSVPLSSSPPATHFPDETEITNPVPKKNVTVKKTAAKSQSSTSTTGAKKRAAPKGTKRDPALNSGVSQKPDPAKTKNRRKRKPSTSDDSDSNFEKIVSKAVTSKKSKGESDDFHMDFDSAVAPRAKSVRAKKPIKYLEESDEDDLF
# Chain of TOP2B (topoisomerase IIβ) (Q02880 2-1626): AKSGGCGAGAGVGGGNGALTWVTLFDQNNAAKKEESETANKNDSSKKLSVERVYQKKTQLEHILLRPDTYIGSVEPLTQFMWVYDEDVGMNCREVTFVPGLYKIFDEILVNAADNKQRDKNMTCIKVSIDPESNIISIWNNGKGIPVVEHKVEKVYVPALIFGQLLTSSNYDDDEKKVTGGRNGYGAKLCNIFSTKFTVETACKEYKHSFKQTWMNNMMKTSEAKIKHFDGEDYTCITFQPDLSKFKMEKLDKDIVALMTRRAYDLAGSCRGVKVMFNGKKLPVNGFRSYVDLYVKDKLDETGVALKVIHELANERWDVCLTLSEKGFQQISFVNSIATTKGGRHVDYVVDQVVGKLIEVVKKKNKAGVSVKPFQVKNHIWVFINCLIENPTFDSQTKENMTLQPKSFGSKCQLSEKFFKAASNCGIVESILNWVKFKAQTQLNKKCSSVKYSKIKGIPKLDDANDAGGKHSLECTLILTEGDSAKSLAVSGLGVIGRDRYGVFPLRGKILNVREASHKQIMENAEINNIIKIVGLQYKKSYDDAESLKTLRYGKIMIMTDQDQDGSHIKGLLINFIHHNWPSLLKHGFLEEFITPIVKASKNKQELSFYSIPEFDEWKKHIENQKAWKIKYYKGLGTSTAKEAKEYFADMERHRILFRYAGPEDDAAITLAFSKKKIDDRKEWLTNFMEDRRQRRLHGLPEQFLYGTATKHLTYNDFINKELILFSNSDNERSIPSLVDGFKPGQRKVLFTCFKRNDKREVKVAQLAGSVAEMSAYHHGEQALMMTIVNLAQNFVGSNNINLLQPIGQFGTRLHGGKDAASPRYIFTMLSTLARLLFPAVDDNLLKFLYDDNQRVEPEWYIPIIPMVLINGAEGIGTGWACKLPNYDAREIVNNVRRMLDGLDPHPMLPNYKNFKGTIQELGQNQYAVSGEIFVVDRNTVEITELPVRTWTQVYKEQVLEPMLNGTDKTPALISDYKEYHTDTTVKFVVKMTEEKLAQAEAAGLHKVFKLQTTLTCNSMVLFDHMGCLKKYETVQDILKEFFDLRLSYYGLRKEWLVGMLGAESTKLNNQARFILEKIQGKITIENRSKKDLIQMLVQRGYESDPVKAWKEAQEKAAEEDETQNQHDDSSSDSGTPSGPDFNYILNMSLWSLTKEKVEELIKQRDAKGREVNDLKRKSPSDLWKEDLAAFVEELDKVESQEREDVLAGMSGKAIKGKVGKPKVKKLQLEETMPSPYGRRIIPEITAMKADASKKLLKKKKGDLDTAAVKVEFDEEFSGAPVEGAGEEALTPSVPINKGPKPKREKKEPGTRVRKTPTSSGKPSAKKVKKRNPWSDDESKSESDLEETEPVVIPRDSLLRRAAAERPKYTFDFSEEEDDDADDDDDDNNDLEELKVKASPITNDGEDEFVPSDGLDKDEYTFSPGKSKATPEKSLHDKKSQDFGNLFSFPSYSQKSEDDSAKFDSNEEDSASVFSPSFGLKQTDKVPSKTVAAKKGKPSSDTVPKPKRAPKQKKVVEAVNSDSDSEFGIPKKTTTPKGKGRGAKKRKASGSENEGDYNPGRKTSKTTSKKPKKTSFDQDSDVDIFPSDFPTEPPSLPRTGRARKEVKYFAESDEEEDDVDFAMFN
IC50 [1] [µM],IC50 [2] [µM],SMILES
~130,~130,"CC(Oc1ccc(Oc2cnc3ccc(Cl)cc3n2)cc1)C(=O)O (racemic) [XK469, 2(R)-[4-(7-chloro-2-quinoxalinyl)oxyphenoxy]propionic acid]"
~60,~60,"C[C@@H](CN1CC(=O)NC(=O)C1)N1CC(=O)NC(=O)C1 [DEX, dexrazoxane]"
